Measurements as given in PubChem BioAssay AID248 (DTP/NCI, 2004).
Where “and” joins values, the source holds several entries; their conditions need not be identical. Equal values may be shown once. Toxic doses and inconclusive results are not listed. Rule as the data show it: active = T/C of 150% or more; inactive = T/C below 125%.

Tested on: L1210 leukemia ip in BDF1 mice, survival T/C
Test: NCI In Vivo Anticancer Drug Screen. Data for tumor model L1210 Leukemia (intraperitoneal) in B6D2F1 (BDF1) mice
Settings: endpoint: mean survival time, higher = longer survival
In short: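 Value reflects the ratio of survival in compound-treated mice to survival in vehicle-treated controls, with both groups carrying the same transplanted tumor.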

[1] = dose: 100.0 mg/kg/injection, schedule: Q01DX001 (ip), vehicle: carboxymethylcellulose (CMC)
[2] = dose: 200.0 mg/kg/injection, schedule: Q01DX001 (ip), vehicle: carboxymethylcellulose (CMC)
[3] = dose: 400.0 mg/kg/injection, schedule: Q01DX001 (ip), vehicle: carboxymethylcellulose (CMC)
[4] = dose: 100.0 mg/kg/injection, schedule: Q01DX001 (ip), vehicle: Klucel (hydroxypropylcellulose) (HPC)
[5] = dose: 200.0 mg/kg/injection, schedule: Q01DX001 (ip), vehicle: Klucel (hydroxypropylcellulose) (HPC)
[6] = dose: 400.0 mg/kg/injection, schedule: Q01DX001 (ip), vehicle: Klucel (hydroxypropylcellulose) (HPC)
[7] = dose: 100.0 mg/kg/injection, schedule: Q04DX002 (ip), vehicle: saline

Measured: T/C

CCOC(=O)Cc1cc(=O)n(C)c2ccccc12
inactive: dose: 100.0 mg/kg/injection, schedule: Q01DX001 (ip), vehicle: other 97 % of control | dose: 200.0 mg/kg/injection, schedule: Q01DX001 (ip), vehicle: other 97 % of control | dose: 400.0 mg/kg/injection, schedule: Q01DX001 (ip), vehicle: other 103 % of control

CSc1ccc(OC(=O)Oc2ccc(SC)c(C)c2)cc1C
inactive: [1] 92 % of control | [2] 92 % of control | [3] 97 % of control

C/C(=N/NC(=S)Nc1cc(I)ccc1C)c1cc(C)ccc1O
inactive: dose: 12.5 mg/kg/injection, schedule: Q04DX002 (ip), vehicle: Klucel (hydroxypropylcellulose) (HPC) 97 % of control | dose: 25.0 mg/kg/injection, schedule: Q04DX002 (ip), vehicle: Klucel (hydroxypropylcellulose) (HPC) 102 % of control | dose: 50.0 mg/kg/injection, schedule: Q04DX002 (ip), vehicle: Klucel (hydroxypropylcellulose) (HPC) 94 % of control

C=C1CC2(OC1=O)C(=O)N(C)c1ccccc12 (stereo not given)
inactive: dose: 25.0 mg/kg/injection, schedule: Q04DX002 (ip), vehicle: gum acacia 101 % of control | dose: 50.0 mg/kg/injection, schedule: Q04DX002 (ip), vehicle: gum acacia 97 % of control

O=C1C=C(Nc2cccc(Cl)c2)C(=O)N1c1cccc(Cl)c1
inactive: dose: 75.0 mg/kg/injection, schedule: Q04DX003 (ip), vehicle: other 106 % of control | dose: 150.0 mg/kg/injection, schedule: Q04DX003 (ip), vehicle: other 91 % of control | dose: 300.0 mg/kg/injection, schedule: Q04DX003 (ip), vehicle: other 90 % of control

Cc1cc(C)n(/N=C/c2ccc([N+](=O)[O-])o2)c(=O)c1C#N
inactive: [1] 88 % of control | [2] 91 % of control | [3] 88 % of control

O=C(NCCBr)c1ccc(CCl)cc1
inactive: dose: 75.0 mg/kg/injection, schedule: Q04DX003 (ip), vehicle: Klucel (hydroxypropylcellulose) (HPC) 102 % of control | [4] 104 % of control | dose: 150.0 mg/kg/injection, schedule: Q04DX003 (ip), vehicle: Klucel (hydroxypropylcellulose) (HPC) 96 % of control | [5] 95 % of control | dose: 300.0 mg/kg/injection, schedule: Q04DX003 (ip), vehicle: Klucel (hydroxypropylcellulose) (HPC) 97 % of control | [6] 103 % of control

CCCCCCCCCCCCCCS(=O)(=O)CCCl
inactive: dose: 100.0 mg/kg/injection, schedule: Q04DX003 (ip), vehicle: carboxymethylcellulose (CMC) 98 % of control | dose: 200.0 mg/kg/injection, schedule: Q04DX003 (ip), vehicle: carboxymethylcellulose (CMC) 94 % of control | dose: 400.0 mg/kg/injection, schedule: Q04DX003 (ip), vehicle: carboxymethylcellulose (CMC) 94 % of control

CN(Cc1ccccc1)C(=O)COc1ccc(Cl)c(Cl)c1
inactive: [4] 106 % of control | [5] 96 % of control | [6] 102 % of control

CCOP(=O)(CC)C(Cl)(Cl)Cl (stereo not given)
inactive: dose: 100.0 mg/kg/injection, schedule: Q04DX002 (ip), vehicle: saline with Tween-80 93 % of control | dose: 200.0 mg/kg/injection, schedule: Q04DX002 (ip), vehicle: saline with Tween-80 90 % of control | dose: 400.0 mg/kg/injection, schedule: Q04DX002 (ip), vehicle: saline with Tween-80 93 % of control

CNC(=Nc1ccc(NC(=O)NC(=O)c2ccc(C(=O)NC(=O)Nc3ccc(N=C(NC)c4ccccc4)cc3)cc2)cc1)c1ccccc1
inactive: dose: 62.0 mg/kg/injection, schedule: Q01DX Z (ip), vehicle: carboxymethylcellulose (CMC) 88 % of control | dose: 125.0 mg/kg/injection, schedule: Q01DX Z (ip), vehicle: carboxymethylcellulose (CMC) 104 % of control | dose: 250.0 mg/kg/injection, schedule: Q01DX Z (ip), vehicle: carboxymethylcellulose (CMC) 92 % of control | dose: 500.0 mg/kg/injection, schedule: Q01DX Z (ip), vehicle: carboxymethylcellulose (CMC) 95 % of control

Clc1cc2c(cc1Cl)OB(c1ccccc1)O2
inactive: dose: 100.0 mg/kg/injection, schedule: Q04DX003 (ip), vehicle: alcohol 113 % of control | dose: 200.0 mg/kg/injection, schedule: Q04DX003 (ip), vehicle: alcohol 106 % of control

COc1ccc(O)c2c1C(=O)c1ccccc1C2=O
inactive: dose: 25.0 mg/kg/injection, schedule: Q01DX009 (ip), vehicle: other 93 % of control | dose: 50.0 mg/kg/injection, schedule: Q01DX009 (ip), vehicle: other 95 % of control | dose: 100.0 mg/kg/injection, schedule: Q01DX009 (ip), vehicle: other 104 % of control | dose: 200.0 mg/kg/injection, schedule: Q01DX009 (ip), vehicle: other 102 % of control | dose: 400.0 mg/kg/injection, schedule: Q01DX009 (ip), vehicle: other 104 % of control

O=C(COC1CCCCC1)OC1CCCCC1
inactive: dose: 100.0 mg/kg/injection, schedule: Q01DX009 (ip), vehicle: saline with Tween-80 95 % of control | dose: 100.0 mg/kg/injection, schedule: Q04DX003 (ip), vehicle: saline with Tween-80 98 % of control | dose: 200.0 mg/kg/injection, schedule: Q01DX009 (ip), vehicle: saline with Tween-80 96 % of control | dose: 400.0 mg/kg/injection, schedule: Q01DX009 (ip), vehicle: saline with Tween-80 94 % of control | dose: 400.0 mg/kg/injection, schedule: Q04DX003 (ip), vehicle: saline with Tween-80 86 % of control

c1ccc(Nc2ncn[nH]2)cc1
inactive: dose: 100.0 mg/kg/injection, schedule: Q04DX002 (ip), vehicle: gum acacia 106 % of control | dose: 200.0 mg/kg/injection, schedule: Q04DX002 (ip), vehicle: gum acacia 103 % of control | dose: 400.0 mg/kg/injection, schedule: Q04DX002 (ip), vehicle: gum acacia 117 % of control

Cc1cc(O)cc(=O)[nH]1
inactive: dose: 100.0 mg/kg/injection, schedule: Q01DX001 (ip), vehicle: saline 97 % of control | dose: 200.0 mg/kg/injection, schedule: Q01DX001 (ip), vehicle: saline 100 % of control

O=C(OCc1ccccc1CN1CCCC1)c1ccc([N+](=O)[O-])cc1Cl
inactive: [7] 107 % of control | dose: 200.0 mg/kg/injection, schedule: Q04DX002 (ip), vehicle: saline 96 % of control

O=[N+]([O-])c1ccc(S(=O)(=O)OCC2CO2)cc1 (stereo not given)
inactive: dose: 100.0 mg/kg/injection, schedule: Q01DX008 (ip), vehicle: Klucel (hydroxypropylcellulose) (HPC) 108 % of control | dose: 200.0 mg/kg/injection, schedule: Q01DX008 (ip), vehicle: Klucel (hydroxypropylcellulose) (HPC) 95 % of control | dose: 400.0 mg/kg/injection, schedule: Q01DX008 (ip), vehicle: Klucel (hydroxypropylcellulose) (HPC) 89 % of control

Cc1cccc(SC(=O)SC(C)CN)c1 (stereo not given)
inactive: dose: 25.0 mg/kg/injection, schedule: Q04DX002 (ip), vehicle: saline 99 % of control | dose: 50.0 mg/kg/injection, schedule: Q04DX002 (ip), vehicle: saline 105 % of control | [7] 94 % of control and 99 % of control

NC(CNC(=O)Oc1ccccc1)C(=O)O (stereo not given)
inactive: dose: 100.0 mg/kg/injection, schedule: Q01DX001 (ip), vehicle: saline with Tween-80 95 % of control | dose: 200.0 mg/kg/injection, schedule: Q01DX001 (ip), vehicle: saline with Tween-80 103 % of control | dose: 400.0 mg/kg/injection, schedule: Q01DX001 (ip), vehicle: saline with Tween-80 92 % of control

Fc1cccc(CSc2ncnc3nc[nH]c23)c1
inactive: dose: 12.5 mg/kg/injection, schedule: Q01DX009 (ip), vehicle: saline 104 % of control | dose: 25.0 mg/kg/injection, schedule: Q01DX009 (ip), vehicle: saline 119 % of control | dose: 50.0 mg/kg/injection, schedule: Q01DX009 (ip), vehicle: saline 120 % of control | dose: 175.0 mg/kg/injection, schedule: Q01DX001 (ip), vehicle: saline 105 % of control and 116 % of control | dose: 265.0 mg/kg/injection, schedule: Q01DX001 (ip), vehicle: saline 115 % of control | dose: 400.0 mg/kg/injection, schedule: Q01DX001 (ip), vehicle: saline 119 % of control
